Assays:
[1] = target: T1, antibody binding to mutated vimentin (Homo sapiens, UniProt P08670, A54Y/A67Y/G16R/G41R/G59R/G76R/P18T/P24T/P46T/P75T/R78S); assay: Blocking of antibody binding to mutated vimentin in vitro (ELISA, RA sera)
T1 construct: His-tag; made in house; host or cells: E. coli
Experimental: To prepare an extract from green tea, 5 g of any commercially available tea were covered with 10 ml of 80% DMSO and stirred overnight. The solution was centrifuged at 13 000 rpm for 10. min and defined as tea extract. In contrast to the above solid substances 1, 2 and 4-6, 10 μl/ml tea extract of this preparation were employed. Antibody binding in the presence and absence of substances was analyzed in an ELISA for which microtiter plates were prepared analogously to Example 2. Different sera of RA patients were used in dilutions of from 1:100 to 1:400. Blocking of antibody binding was induced by preincubating 100 μl of the diluted serum with the substances or tea solutions indicated for 10 min. Subsequently, the remaining crossreaction was analyzed by transferring the 100 μl of serum-substance mixture to the cavities of said microtiter plate. According to the procedure of a classical ELISA, the bound antibodies were detected by means of a HRP-conjugated anti-human IgG. FIG. 3 depicts by way of example the results obtained using patient serum No. 400725.

vimentin = vimentin (Homo sapiens, UniProt P08670); conditions: Ermakova et al. 2005; cited from earlier work
Chain of vimentin (P08670 whole entry, species assumed): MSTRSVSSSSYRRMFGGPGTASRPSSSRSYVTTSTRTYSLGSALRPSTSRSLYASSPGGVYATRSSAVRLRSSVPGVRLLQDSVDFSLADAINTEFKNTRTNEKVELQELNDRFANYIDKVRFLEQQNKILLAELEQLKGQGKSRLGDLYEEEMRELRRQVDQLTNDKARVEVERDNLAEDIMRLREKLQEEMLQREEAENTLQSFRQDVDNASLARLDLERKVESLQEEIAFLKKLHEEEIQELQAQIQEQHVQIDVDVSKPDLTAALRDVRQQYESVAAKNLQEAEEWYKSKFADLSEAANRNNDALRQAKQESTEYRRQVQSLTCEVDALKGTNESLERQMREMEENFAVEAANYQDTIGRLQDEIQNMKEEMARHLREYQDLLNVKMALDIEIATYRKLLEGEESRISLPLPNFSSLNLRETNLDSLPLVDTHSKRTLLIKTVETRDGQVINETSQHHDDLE

[2] = Oral administration of freeze-dried tea extract to rats, plasma analysis by HPLC and GC/MS; assay type: in vivo
Source text: Therefore the tea extracts prepared by us (see Example 7) were freeze-dried and reconstituted with cocoa oil or salmon oil. After oral administration of an extract prepared from 5 g of green tea (5 g/kg of body weight) to rats, blood was taken every half hour and analyzed by means of HPLC and GC/MS.

[3] = tested on: antibodies to the polypeptides of the invention; assay: Follow-up of antibody titer (ELISA based on the polypeptide) and DAS score in treated RA patients; assay type: in vivo, human; conditions: for antibody titers, fraction of the starting value: patients with low disease activity (average DAS 2.8), in the course of 1-2 years, on average; for alteration in the DAS score due to treatment: severe rheumatoid arthritis (average DAS score of 4.9)
Source text: Patients having low disease activity (average DAS score of 2.8) were identified by an ELISA based on the polypeptide of the invention (<300 U/ml on average). Correlating with the success of treatment (DAS score less than 1.5 after treatment) with sulfasalazine or cortisone, the antibody titers were reduced to, on average, ⅙ of the starting value in the course of 1-2 years.
Patients suffering from severe rheumatoid arthritis (average DAS score of 4.9) had, on average, an antibody titer of >1000 U/ml. […] In parallel with the altered antibody titer, patients reported during anamnesis a substantially more positive overall evaluation of their subjective situation regarding the disease, i.e. the diagnostic agent of the invention is also suitable for quality control of the therapy of a severe rheumatoid arthritis.

[4] = extract from 5 g green tea (5 g/kg of body weight)

T1 sequence (P08670 whole entry G16R/P18T/P24T/G41R/P46T/A54Y/G59R/A67Y/P75T/G76R/R78S): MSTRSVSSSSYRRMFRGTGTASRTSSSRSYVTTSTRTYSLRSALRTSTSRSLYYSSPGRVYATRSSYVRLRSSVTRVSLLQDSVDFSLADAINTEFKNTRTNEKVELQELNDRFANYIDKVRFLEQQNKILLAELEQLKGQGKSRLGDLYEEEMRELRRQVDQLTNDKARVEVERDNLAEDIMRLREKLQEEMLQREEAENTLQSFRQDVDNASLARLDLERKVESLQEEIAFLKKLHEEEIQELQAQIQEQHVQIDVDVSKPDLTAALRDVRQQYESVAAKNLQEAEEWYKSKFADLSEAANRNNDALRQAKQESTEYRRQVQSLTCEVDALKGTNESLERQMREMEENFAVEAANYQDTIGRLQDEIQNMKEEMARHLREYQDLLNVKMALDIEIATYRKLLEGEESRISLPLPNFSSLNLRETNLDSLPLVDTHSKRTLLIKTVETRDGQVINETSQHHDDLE

In the case of `Oc1cc(O)c2c(c1)O[C@H](c1ccc(O)c(O)c1)[C@H](O)C2` [EC, Epicatechin], the “blocking of antibody binding” value ([1]; competition experiments, maximum) is reported as at most 10%.
In the case of `O=C(O[C@@H]1Cc2c(O)cc(O)cc2O[C@@H]1c1cc(O)c(O)c(O)c1)c1cc(O)c(O)c(O)c1` [EGCG, Epigallocatechin gallate], the binding to vimentin (vimentin) is given as “binds to vimentin”, the “blocking of formation of autoimmune complexes of autoantibodies to mutated vimentin” value [1] is given as “blocked in a concentration-dependent manner” and the “blocking of antibody binding” value ([1]; concentration of 10-100 μg/ml) is given as “no more than 45%”. The “maximum plasma concentration for EGCG (content of 50% in the extract)” value [2, 4] was “about 245 μg/ml”, the “maximum plasma concentration of EC and EGCG (5-13% of the extract mass)” value [2, 4] was 75 µg/mL and the “time of maximum plasma concentration after intake” value ([2]; extract from 5 g green tea (5 g/kg of body weight) in cocoa oil or salmon oil) was “About 2 hours”.
In the case of `C[C@]12CCC(=O)C=C1CC[C@@H]1[C@@H]2C(=O)C[C@@]2(C)[C@H]1CC[C@]2(O)C(=O)CO` [cortisone], the “antibody titers, fraction of the starting value” [3] is reported as “⅙”.
For `CN(Cc1cnc2nc(N)nc(N)c2n1)c1ccc(C(=O)N[C@@H](CCC(=O)O)C(=O)O)cc1` [methotrexate], the “alteration in the DAS score due to treatment” value [3] was “no significant alteration”.
For `O=C(O)c1cc(/N=N/c2ccc(S(=O)(=O)Nc3ccccn3)cc2)ccc1O` [sulfasalazine], the “antibody titers, fraction of the starting value” [3] was “⅙”.
In the case of “Remicade: marketed drug used to treat severe rheumatoid arthritis”, the “alteration in the DAS score due to treatment” value [3] is reported as “no significant alteration”.
